Measured values: patent US20090246302A1, “COMPOSITION AND METHOD FOR PROTECTING AGRICULTURAL CROPS AND/OR AGRICULTURAL PRODUCTS” (priority 2008, published 2009)
Where two headings read alike, the source gives them in different places.

Experiments:
Assay type in all cases: in vivo
[1] = tested on: C. cephalonica larvae; assay: whole plant or invertebrate; settings: Corcyra cephalonica, read-out: Mean (%) mortality of insects, laboratory trials; for mortality at 750 mg/kg: dosage of 750 mg/kg; for mortality at 1000 mg/kg: dosage of 1 g/kg
Procedure: (§1) The composition for protecting agricultural products was prepared. A new method was employed using rice bran, as carrier material. 500 g of clean and uncontaminated rice bran collected from the rice mills was completely dehydrated by sun drying. 25 g of the botanical extract of the P. betel in 125 ml of acetone was sprayed uniformly on to the rice bran. Mixed manually and allowed to shade dry for about 20 min.

[2] = tested on: C. chinensis adult; assay: whole plant or invertebrate; settings: Callosobruchus chinensis, read-out: Mean (%) mortality of insects, laboratory trials; for mortality at 750 mg/kg: dosage of 750 mg/kg; for mortality at 1000 mg/kg: dosage of 1 g/kg
Procedure: as §1

[3] = tested on: S. oryzae; assay: whole plant or invertebrate; settings: Sitophilus oryzae, laboratory trials, read-out: Mean (%) mortality of insects; for mortality at 750 mg/kg: dosage of 750 mg/kg; for mortality at 1000 mg/kg: dosage of 1 g/kg
Procedure: as §1

[4] = tested on: T. granarium adult; assay: whole plant or invertebrate; settings: Trogoderma granarium, read-out: Mean (%) mortality of insects, laboratory trials; for mortality at 750 mg/kg: dosage of 750 mg/kg; for mortality at 1000 mg/kg: dosage of 1 g/kg
Procedure: as §1

[5] = tested on: C. cephalonica larvae; settings: field evaluation, dosage of 25 mg/25 Kg
[6] = tested on: C. chinensis adult; settings: field evaluation, dosage of 25 mg/25 Kg
[7] = tested on: T. granarium adult; settings: field evaluation, dosage of 25 mg/25 Kg
[8] = tested on: S. oryzae; settings: field evaluation, dosage of 25 mg/25 Kg

C=CCc1ccc(O)c(OC)c1 [Eugenol, 4-Allyl-2-methoxyphenol]
mortality at 750 mg/kg ([1]; 1st week): 100%
mortality at 750 mg/kg ([1]; 2nd week): 100%
mortality at 750 mg/kg ([1]; 3rd week): 53.3%
mortality at 750 mg/kg ([1]; 4th week): 13.3%
mortality at 750 mg/kg ([1]; 5th week): 0%
mortality at 750 mg/kg ([1]; 6th week): 0%
mortality at 1000 mg/kg ([1]; 1st week): 100%
mortality at 1000 mg/kg ([1]; 2nd week): 100%
mortality at 1000 mg/kg ([1]; 3rd week): 74%
mortality at 1000 mg/kg ([1]; 4th week): 29%
mortality at 1000 mg/kg ([1]; 5th week): 13.3%
mortality at 1000 mg/kg ([1]; 6th week): 0%
mortality at 750 mg/kg ([2]; 1st week): 100%
mortality at 750 mg/kg ([2]; 2nd week): 100%
mortality at 750 mg/kg ([2]; 3rd week): 58.4%
mortality at 750 mg/kg ([2]; 4th week): 20%
mortality at 750 mg/kg ([2]; 5th week): 0%
mortality at 750 mg/kg ([2]; 6th week): 0%
mortality at 1000 mg/kg ([2]; 1st week): 100%
mortality at 1000 mg/kg ([2]; 2nd week): 100%
mortality at 1000 mg/kg ([2]; 3rd week): 63%
mortality at 1000 mg/kg ([2]; 4th week): 35%
mortality at 1000 mg/kg ([2]; 5th week): 20%
mortality at 1000 mg/kg ([2]; 6th week): 0%
mortality at 750 mg/kg ([3]; 1st week): 100%
mortality at 750 mg/kg ([3]; 2nd week): 100%
mortality at 750 mg/kg ([3]; 3rd week): 40%
mortality at 750 mg/kg ([3]; 4th week): 20%
mortality at 750 mg/kg ([3]; 5th week): 0%
mortality at 750 mg/kg ([3]; 6th week): 0%
mortality at 1000 mg/kg ([3]; 1st week): 100%
mortality at 1000 mg/kg ([3]; 2nd week): 100%
mortality at 1000 mg/kg ([3]; 3rd week): 40%
mortality at 1000 mg/kg ([3]; 4th week): 35%
mortality at 1000 mg/kg ([3]; 5th week): 25%
mortality at 1000 mg/kg ([3]; 6th week): 0%
mortality at 750 mg/kg ([4]; 1st week): 100%
mortality at 750 mg/kg ([4]; 2nd week): 100%
mortality at 750 mg/kg ([4]; 3rd week): 26%
mortality at 750 mg/kg ([4]; 4th week): 13.3%
mortality at 750 mg/kg ([4]; 5th week): 0%
mortality at 750 mg/kg ([4]; 6th week): 0%
mortality at 1000 mg/kg ([4]; 1st week): 100%
mortality at 1000 mg/kg ([4]; 2nd week): 100%
mortality at 1000 mg/kg ([4]; 3rd week): 40%
mortality at 1000 mg/kg ([4]; 4th week): 23%
mortality at 1000 mg/kg ([4]; 5th week): 0%
mortality at 1000 mg/kg ([4]; 6th week): 0%
Mean (%) mortality of insects ([5]; 1st week): 100%
Mean (%) mortality of insects ([5]; 2nd week): 100%
Mean (%) mortality of insects ([5]; 3rd week): 89%
Mean (%) mortality of insects ([5]; 4th week): 66%
Mean (%) mortality of insects ([5]; 5th week): 23%
Mean (%) mortality of insects ([5]; 6th week): 0%
Mean (%) mortality of insects ([5]; 7th week): 0%
Mean (%) mortality of insects ([6]; 1st week): 100%
Mean (%) mortality of insects ([6]; 2nd week): 100%
Mean (%) mortality of insects ([6]; 3rd week): 100%
Mean (%) mortality of insects ([6]; 4th week): 53%
Mean (%) mortality of insects ([6]; 5th week): 39%
Mean (%) mortality of insects ([6]; 6th week): 12.4%
Mean (%) mortality of insects ([6]; 7th week): 0%
Mean (%) mortality of insects ([7]; 1st week): 100%
Mean (%) mortality of insects ([7]; 2nd week): 100%
Mean (%) mortality of insects ([7]; 3rd week): 72%
Mean (%) mortality of insects ([7]; 4th week): 42%
Mean (%) mortality of insects ([7]; 5th week): 20%
Mean (%) mortality of insects ([7]; 6th week): 0%
Mean (%) mortality of insects ([7]; 7th week): 0%
Mean (%) mortality of insects ([8]; 1st week): 100%
Mean (%) mortality of insects ([8]; 2nd week): 100%
Mean (%) mortality of insects ([8]; 3rd week): 85%
Mean (%) mortality of insects ([8]; 4th week): 50%
Mean (%) mortality of insects ([8]; 6th week): 0%
Mean (%) mortality of insects ([8]; 7th week): 0%
